Results from paper PMC3492287, “Lysosomotropic Properties of Weakly Basic Anticancer Agents Promote Cancer Cell Selectivity In Vitro” (PLoS ONE, 2012).
Entries after “also recorded” stand apart in the source; their conditions may differ. Where two headings read alike, the source gives them in different places.

Key:
[1] = system: MDA-MB-231 cells with low (scrambled shRNA) vs elevated (V1E1 shRNA) lysosomal pH; assay: intracellular distribution-based (IDB) selectivity from antiproliferative WST-1 IC50 values; format: cell-based, human
Excerpt: We subsequently evaluated the IC50 of the Hsp90 inhibitors in both cell types (Figure S4) and calculated selectivity as IC50 in MDA-MB-231 cells with low lysosomal pH divided by IC50 in MDA-MB-231 cells with elevated lysosomal pH.
MDA-MB-231 cells with elevated lysosomal pH were generated by lentiviral vector-mediated knockdown of the V-ATPase V1E1 subunit (ATP6V1E1). The lentiviral transfer vector pPGK-Neo-ATP6V1E1 encoding the target sequence 5′-[…]-3′ against the V-ATPase V1E1 subunit was obtained from Mission (Sigma, St. Louis, MO). […] After the cells adhered, 2.6 µg of vector DNA was combined with 26 µL of the lentiviral packaging mix and transfected into cells using Fugene-6 transfection reagent (Roche Diagnostics, Indianapolis, IN), according to the manufacturer's instructions. […] The virus-containing cell culture supernatants were harvested twice: once at 24 h and again at 48 h. Prior to use, the viral media was filtered through a 0.45-µm filter and added onto 70% confluent 75 cc flasks of MDA-MB-231 cells, in the presence of 8 µg/mL hexadimethrine bromide. The viruses were allowed to infect the cells for 16–18 h, after which the media containing viruses was replaced with fresh media for a further 24 h prior to analysis of knockdown of V1E1 expression. The knockdown efficiency was analyzed by Western blotting, performed as described previously. […] Anti-goat HRP-conjugated secondary antibody (Santa Cruz Biotechnology) was used at a 1∶5000 dilution, and anti-mouse HRP-conjugated secondary antibody was used at a 1∶1000 dilution.
Cell sensitivity to compounds was evaluated using the WST-1 (4-[3[(4-iodophenyl)-2-(4-nitrophenyl)-2H-5-tetrazolio]-1,3-benzene disulfonate) assay (BioAssay Systems, Hayward, CA), which was performed according to the manufacturer's instructions. Briefly, 4000 cells were seeded per well of a 96-well plate and allowed to adhere overnight. Cells were incubated in increasing concentrations (9 different concentrations ranging from 0.00001 µM to 1000 µM) of drug for a period of 72 h. At the end of the drug treatment period, 10 µL of WST-1 reagent was added per well, allowed to incubate at 37°C for 2 hours, and absorbance at 450 and 620 nm (reference) was measured using a Multiskan model MCC/340 microplate reader (ThermoElectron Corp, Hudson, NH). Cell viability as a percent of control (untreated) cells was plotted against drug concentration to generate cytotoxicity curves, which were fit to 3 or 4 parameter logistic Hill plots using SigmaPlot. IC50 values were determined from the curve fit.

[2] = cited from earlier work
[3] = pKa determination by 1H NMR pH titration; format: physicochemical
Description: The pKa values for analogs 1, 2, 3, 5 and 6 (see Figure 2 for chemical structures) were measured at 37°C using ^1H NMR. To determine the pKa using this method, the chemical shifts of protons alpha to the ionizable amine were plotted against pH, yielding sigmoidal curves (Figure S1) from which pKa was derived. […] Therefore, we report a previously measured pKa value for compound 4 that was procured using an alternative approach, and we report a calculated value for compound 7 (see Materials and Methods). […] Only the higher pKa value is reported in Figure 2 because the second is too low to theoretically contribute to ion trapping in lysosomes.
All NMR solvents and reagents were obtained from Cambridge Isotope Labs (Andover, MA), unless noted otherwise. Compounds were dissolved at a 2–3 mg/mL concentration in D2O. pD measurements in D2O were performed using a MiniLab model IQ125 pH electrode (Fisher Scientific, Pittsburg, PA). pD was adjusted using NaOD (40% in D2O) or DCl (20% in D2O). ^1H NMR spectra were recorded at 37°C using a Bruker 400 MHz NMR and analyzed using the Bruker Topspin software. […] (DSS) was used as the reference peak. pD was converted to pH using the following expression: pH = 0.936pD*+0.412 [45]. The change in chemical shift of protons alpha to the amine as a function of pH yielded sigmoidal plots that were fit to a 4-parameter logistic equation using SigmaPlot (Systat Software, San Jose, CA) from which pKa was determined. The calculated pKa for compound 7 was determined using the MarvinSketch version 5.3.8. pKa plugin (www.chemaxon.com).

[4] = design: method as in PMID 17163760; conditions: previously measured; cited from earlier work
[5] = 1H NMR in D2O, 37°C, n = 1, for compound 5 the higher pKa, read-out: pKa

## COc1cccc2c1C(=O)c1c(O)c3c(c(O)c1C2=O)C[C@@](O)(C(C)=O)C[C@@H]3O[C@H]1C[C@H](N)[C@H](O)[C@H](C)O1 [daunorubicin]
[1]
  IDB selectivity (IC50 low lysosomal pH / IC50 elevated lysosomal pH MDA-MB-231): significant but different degrees of IDB selectivity; also recorded: significantly higher IDB selectivity than did mitoxantrone

## O=C1c2c(O)ccc(O)c2C(=O)c2c(NCCNCCO)ccc(NCCNCCO)c21 [mitoxantrone]
[2]; in Figure 6
  pKa: 6
[2]; weakly basic
  pKa: 8.1
[2]; weakly basic, listed as Mitoxantrone
  pKa: ~8
[1]; 72 h, WST-1, n = 3
  IDB selectivity (IC50 low lysosomal pH / IC50 elevated lysosomal pH MDA-MB-231): significant but different degrees of IDB selectivity
[1]; 72 h, WST-1, n = 3, listed as Mitoxantrone
  IDB selectivity (IC50 low lysosomal pH / IC50 elevated lysosomal pH MDA-MB-231): significant IDB selectivity

## COC1C=CC=C(C)C(=O)NC2=CC(=O)C(NCCN3CCNCC3)=C(CC(C)CC(OC)C(O)C(C)C=C(C)C1OC(N)=O)C2=O (centres unmarked) [Compound 5]
[3]; [5]
  pKa: 9.9
[3]; 1H NMR, 37°C, too low to contribute to ion trapping, read-out: pKa (second, lower value)
  pKa: 4.2

## O=c1[nH]cc(F)c(=O)[nH]1 [5-fluorouracil]
[1]
  IDB selectivity (IC50 low lysosomal pH / IC50 elevated lysosomal pH MDA-MB-231): ~1
[1]; 72 h, WST-1, n = 3
  IDB selectivity (IC50 low lysosomal pH / IC50 elevated lysosomal pH MDA-MB-231): one and did not show appreciable IDB selectivity

## COC1C=CC=C(C)C(=O)NC2=CC(=O)C(NCCC3CCNCC3)=C(CC(C)CC(OC)C(O)C(C)C=C(C)C1OC(N)=O)C2=O (centres unmarked) [Compound 6]
[3]; [5]
  pKa: 10.5

## CO[C@H]1/C=C\C=C(/C)C(=O)NC2=CC(=O)C(NCCN(C)C)=C(C[C@@H](C)C[C@H](OC)[C@H](O)[C@@H](C)/C=C(\C)[C@@H]1OC(N)=O)C2=O [17-DMAG]
[4]
  alpha value: 0.01

## COC1C=CC=C(C)C(=O)NC2=CC(=O)C(NCCc3cccnc3)=C(CC(C)CC(OC)C(O)C(C)C=C(C)C1OC(N)=O)C2=O (centres unmarked) [Compound 1]
[3]; [5]
  pKa: 5.8

## COC1C=CC=C(C)C(=O)NC2=CC(=O)C(NCCN(C)C)=C(CC(C)CC(OC)C(O)C(C)C=C(C)C1OC(N)=O)C2=O (centres unmarked) [Compound 3]
[3]
  pKa: 7.8
